Measurements from paper PMC7583056, “Synthesis, Characterisation and In Vitro Anticancer Activity of Catalytically Active Indole-Based Half-Sandwich Complexes” (Molecules, 2020).
Like-named read-outs stand apart in the source and are kept apart here.

Key:
[1] = Stability in d6-DMSO by 1H-NMR; type: physicochemical; settings: 1.1 mM; for Release of the ind-py ligand (decoordination rate): over 24 h; for Release of the ind-py ligand (decoordination rate) / Time to reach equilibrium with second species (DMSO-adduct): 1H-NMR; for Stability in DMSO (in words): 24 h, after equilibrium with DMSO-adduct
Method: (§1) Owing to the limited aqueous solubility of the complexes, all the reactivity experiments were performed using a mixture MeOD/D2O (1:1 v/v) as a solvent. The stability of complexes 1–4 in MeOD/D2O was studied via ^1H-NMR spectroscopy over a period of 24 h. […] The stability of complexes 1–4 in dimethylsulfoxide (DMSO;1.1 mM) was also studied by ^1H-NMR spectroscopy over a period of 24 h (Figure S1). […] The ligand ind-py is also stable in MeOD/D2O over 24 h (Figure S1E).
Complexes 1–4 were also dissolved in d6-DMSO (1.1 mM) and ^1H-NMR spectra were recorded at t ≤ 10 min, 12 h and 24 h.

[2] = test system: PNT2 cells; assay: Chemosensitivity assay (MTT) in PNT2 cells; type: cell-based; settings: 24 h exposure + 48 h recovery, MTT; mean ± SD
Excerpt: (§2) The antiproliferative activity of the ind-py ligand and of complexes 1–4 against ovarian cancer A2780 (cisplatin sensitive) and A2780cisR (cisplatin resistant) cell lines was studied. The IC50 values obtained for all the complexes are shown in Table 2, together with values for cisplatin, which was used as a positive control (untreated cells for 100% viability as negative control). […] One of the major limitations of existing anticancer drugs is their poor selectivity towards cancer cells. Comparing the response of the cancer cell lines to the normal PNT2 cells provides a preliminary indication towards the selectivity of the compounds.
(§3) In vitro chemosensitivity tests were performed against A2780, A2780cisR and PNT2 cells. Cells were routinely maintained as monolayer cultures in RPMI medium supplemented with 10% foetal calf serum, penicillin (100 I.U./mL) and streptomycin (100 μg/mL), sodium pyruvate (1 mM) and L-glutamine (2 mM). For chemosensitivity studies, cells were incubated in 96-well plates at a concentration of 7.5 × 10^3 cells per well and the plates were incubated for 24 h at 37 °C and a 5% CO2 humidified atmosphere prior to drug exposure.
(§4) Complexes were dissolved in DMSO to provide stock solutions, which were further diluted with media to provide a range of final concentrations. Drug-media solutions were added to cells (the final concentration of DMSO was less than 1% (v/v) in all cases) and incubated for 24 h at 37 °C and 5% CO2 humidified atmosphere. The drug-media was removed from the wells and the cells were washed with PBS (100 μL, twice), and 100 μL of complete fresh media were added to each well. The plates were further incubated for 48 h at 37 °C in a 5% CO2 humidified atmosphere to allow for a period of recovery. 3-(4,5-dimethylthiazol-2-yl)-2,5-diphenyltetrazolium bromide (MTT) (20 μL, 2.5 mg/mL) was added to each well and incubated for 2 h at 37 °C and 5% CO2 humidified atmosphere. All solutions were then removed and 100 μL of DMSO was added to each well in order to dissolve the purple formazan crystals. A Thermo Scientific Multiskan EX microplate photometer was used to measure the absorbance in each well at 570 nm. Cell survival was determined as the absorbance of treated cells divided by the absorbance of controls and expressed as a percentage. The IC50 values were determined from plots of % survival against drug concentration. Each experiment was repeated in triplicates of triplicates and a mean value was obtained and stated as IC50 (μM) ± SD. Cisplatin was also used as a positive control.

[3] = test system: A2780cisR cells; assay: Chemosensitivity assay (MTT) in A2780cisR cells; type: cell-based; settings: for IC50: 24 h exposure + 48 h recovery, MTT, mean ± SD
Excerpt: as §2, §3, §4

[4] = test system: 9-ethylguanine (9-EtG); assay: Binding constant towards 9-EtG by 1H-NMR titration; settings: complex 1.1 mM in MeOD/D2O (1:1 v/v), non-linear fit
Method: Binding constant of complexes 1, 3 and 4 with 9-EtG were calculated using the non-linear ThordarsonFittingProgram (Table 1). The binding constant for complex 2 was not calculated due to solubility issues. The magnitude of the binding constants (10^3–10^4 M^−1) is low compared to the usually observed complexation constants in coordination chemistry (>>10^6 M^−1), and is in the range of binding constants observed in host-guest inorganic chemistry (e.g., via non-covalent interactions between a metalla-cage and an aromatic planar guest molecule).
The reactions of complexes 1–4 with 9-ethylguanine (9-EtG) and 9-methyladenine (9-MetA) were studied. MeOD solutions of complexes 1–4 (2.2 mM) were mixed with a solution of the corresponding nucleobase in D2O (4.4 mM) and the pH adjusted to 7.4 ± 0.2. Final concentrations of 1.1 mM for the complex and 2.2 mM for the nucleobase were obtained. ^1H-NMR spectra of the resulting mixture were recorded at t ≤ 10 min, 5 h and 24 h in MeOD/D2O (1:1 v/v).
A titration using 9-EtG at increasing concentrations was performed and the resulting samples were analysed using ^1H-NMR spectroscopy. Binding constants were calculated using the non-linear ThordarsonFittingProgram by plotting the chemical shift of the complex versus the concentration of 9-EtG. Alternatively, binding constant for complexes 3 and 4 was obtained by plotting the ratio of 9-EtG adduct/complex against the concentration of 9-EtG.

[5] = test system: A2780 cells; assay: Chemosensitivity assay (MTT) in A2780 cells; type: cell-based; settings: for Selectivity towards cancerous cells (A2780) versus normal cells (PNT2): from IC50 values A2780 vs PNT2
Excerpt: as §2, §3, §4

[6] = Solubility as observed; type: physicochemical; settings: MeOD/D2O 1:1 v/v, 1.1 mM
Method: as §1

[7] = 24 h exposure + 48 h recovery, MTT, mean ± SD, read-out: IC50 A2780
[8] = A2780 and A2780cisR, read-out: IC50 values (in the range of)

Row | Structure (SMILES) | Release of the ind-py ligand (decoordination rate) [1] [%] | IC50 [2] [µM] | IC50 [3] [µM] | K9-EtG (binding constant towards 9-EtG) [4] [M⁻¹] | IC50 [5, 7] [µM] | IC50 relative to cisplatin (fold higher / less active) ([5]; A2780 and A2780cisR) [×] | IC50 [5, 8] [µM] | Selectivity towards cancerous cells (A2780) versus normal cells (PNT2) [5] [×] | Solubility in MeOD/D2O (in words) [6] | Time to reach equilibrium with second species (DMSO-adduct) [1] | Stability in DMSO (in words) [1] | Activity against A2780cisR compared with A2780 (cross-resistance) ([3]; comparison of IC50 values)
1 | Cc1c(C)c(C)[c-](C)c1C.[Cl-].[Rh+3].c1ccc(-c2cc3ccccc3[n-]2)nc1 [complex 1, [Cp*Rh(ind-py)Cl]] | 25 | 34.7 ± 6.1 | 21.5 ± 3.5 | 25600 | 13 ± 1.7 | 3 | ~20 | 3 |  |  |  | 
2 | Cc1c(C)c(C)[c-](C)c1C.[Cl-].[Ir+3].c1ccc(-c2cc3ccccc3[n-]2)nc1 [complex 2, [Cp*Ir(ind-py)Cl]] | 25 | 32.1 ± 3.9 | 32.7 ± 1.7 |  | 22 ± 2.5 | 3 | ~20 |  | poor solubility |  |  | 
3 | Cc1ccc(C(C)C)cc1.[Cl-].[Ru+2].c1ccc(-c2cc3ccccc3[n-]2)nc1 [complex 3, [(p-cym)Ru(ind-py)Cl]] |  | 54.3 ± 5.4 | 62.8 ± 5.3 | 71600 | 47.3 ± 4.7 |  |  |  |  | less than 10 min | stable | 
4 | Cc1ccc(C(C)C)cc1.[Cl-].[Os+2].c1ccc(-c2cc3ccccc3[n-]2)nc1 [complex 4, [(p-cym)Os(ind-py)Cl]] |  | 34.2 ± 2.2 | 21.5 ± 1.3 | 95400 | 18.8 ± 0.3 | 3 | ~20 | 2 |  | less than 10 min | stable | no significant difference in activity
